According to patent US5376679A, “Bicyclic or tricyclic biocidal compounds” (Shell Internationale Research Maatschappij B.V., priority 1988, dated 1994):

Columns and labels:
fungi = conditions: prior art; cited from earlier work
bacteria = conditions: prior art; cited from earlier work
Podosphaera leucotricha = assay: Direct antisporulant activity against apple powdery mildew (Pl); format: in vivo; conditions: foliar spray, 1 kg/ha; activity grade 1 or 2, not defined
Text: (h) Activity Against Apple Powdery Mildew (Podosphaera leucotricha; Pl) The test is a direct anti-sporulant one using a foliar spray. The upper surfaces of leaves of whole seedlings are inoculated by spraying with an aqueous suspension containing 10^5 conidia/ml 2 days prior to treatment with the test compound. The inoculated plants are immediately dried and kept at glasshouse ambient temperatures and humidity prior to treatment. […] After drying the plants are returned to a compartment at ambient temperature and humidity for up to 9 days, followed by assessment. Assessment is based on the percentage of the leaf area covered by sporulation compared with that on leaves of control plants.

[1] = system: Erysiphe graminis f.sp. hordei; assay: Direct antisporulant activity against barley powdery mildew (Eg); format: in vivo; set-up: scale not given here; conditions: foliar spray, 1 kg/ha; activity grade 1 or 2, not defined
Text: (f) Activity Against Barley Powdery Mildew (Erysiphe graminis f.sp. hordei; Eg) The test is a direct antisporulant one, using a foliar spray. Leaves of barley seedlings, cultivar Golden Promise, are inoculated by dusting with mildew conidia one day prior to treatment with the test compound. The inoculated plants are kept overnight at glasshouse ambient temperature and humidity prior to treatment. […] After drying, plants are returned to a compartment at ambient temperature and humidity for up to 7 days, followed by assessment. Assessment is based on the percentage of leaf area covered by sporulation compared with that on leaves of control plants.

[2] = system: Pseudocercosporella herpotrichoides; assay: In vitro activity against wheat eyespot (Ph); format: cell-based; set-up: Ph: activity against wheat eyespot: scale not given here; conditions: for Ph: activity against wheat eyespot: in vitro, 100 ppm in agar, 11 days, activity grade 1 or 2, not defined
Protocol: (c) Activity Against Wheat Eyespot (Pseudocercosporella herpotrichoides; Ph)
The test is an in vitro one. Samples are prepared wherein 0.7 mls solution containing 2 mg active material dissolved in acetone is evenly dispersed in 20 ml molten half-strength potato dextrose agar (formed by dissolving 2 g potato extract, 10 g dextrose and 7.5 g agar in 1 liter of water and sterilising for 15 minutes and 121° C.) and the resulting 20 ml portions are allowed to set in 9 cm petri dishes. The concentration of active material in the resulting samples is 100 ppm. Upon setting, two plugs of 5 mm diameter taken from the advancing edge of a stock plate of a 3 to 4 week old culture of P.herpotrichoides on full strength potato dextrose agar, incubated at 20°-22° C. in darkness, are placed, equally spaced on the surface of each sample, mycelial side uppermost. The samples are incubated for 11 days at 20°-22° C. in darkness before assessment. Diametric growth is measured with the width of the plug subtracted and results compared with growth on a sample wherein 0.7 ml acetone containing no active material is dispersed in 20 ml half-strength potato agar.

Fusarium culmorum = assay: Activity against seedling wheat blight, soil drench (Fs); format: in vivo; set-up: scale not given here; conditions: 10 kg/ha, 21 days, activity grade 1 or 2, not defined
Protocol: (d) Activity Against Seedling Wheat Blight (Fusarium culmorum; Fs)
The test is an anti-sporulant one using a soil drench. Surface sterilised wheat seeds (var Waggoner) are inoculated by soaking in an aqueous suspension containing 7×10^5 spores/ml (60 mg seed per 80 ml suspension) at 22° C. for 6 hours. The seeds are then sown in pots (5 per pot) in sand at a depth of 1 cm. 1 day after inoculation and planting the active material is applied at a rate of 10 kg/ha by pouring on a soil drench (concentration 0.36 g/l active material in 12% v/v acetone/water) evenly over the sand. The pots are then transferred to a glasshouse, kept at 25° C. and watered sparingly. 21 days after inoculation the resulting seedlings are removed from the pots and their roots are gently washed. Visual assessment is made based on lesion development on stem base and upper roots in comparison with control seedlings.

Plasmopara viticola [3] = assay: Direct protectant activity against vine downy mildew (Pvp); format: in vivo; set-up: Pvp: direct protectant activity against vine downy mildew: scale not given here; conditions: foliar spray, 1 kg/ha; activity grade 1 or 2, not defined
Text: (a) Direct Protectant Activity Against Vine Downy Mildew (Plasmopara viticola; Pvp)
The test is a direct protectant one, using a foliar spray. The lower surfaces of leaves of whole vine plants (cv Cabernet Sauvignon) are sprayed with a solution of active material in 1:1 v/v water/acetone containing 0.04% w "Triton X-155" (trade mark) (octylphenol polyoxyethylene surfactant), at a dosage of 1 kilogram of active material per hectare using a track sprayer which delivers 620 liters/ha, and after a subsequent 24 hours under normal glasshouse conditions the lower surfaces of the leaves are inoculated by spraying with an aqueous solution containing 10^4 zoosporangia/ml. The inoculated plants are kept for 24 hours in a high humidity compartment, 5 days under normal glasshouse conditions and then returned for a further 24 hours to high humidity. Assessment is based on the percentage of leaf area covered by sporulation compared with that on control leaves.

Plasmopara viticola [4] = assay: Antisporulant activity against vine downy mildew (Pva); format: in vivo; conditions: foliar spray, 1 kg/ha; activity grade 1 or 2, not defined
Protocol: (j) Antisporulant Activity Against Vine Downy Mildew (Plasmopara viticola; Pva)
The test is a direct antisporulant one using a foliar spray. The lower surfaces of leaves of whole vine plants (cv Cabernet Sauvignon) are inoculated by spraying with an aqueous suspension containing 10^4 zoosporangia/ml 2 days prior to treatment with the test compound. The inoculated plants are kept for 24 hours in a high humidity compartment, and then 24 hours at glasshouse ambient temperature and humidity. When the plants are dry, infected leaves are sprayed on their lower surfaces with a solution of active material in 1:1 water/acetone containing 0.04% w/w "Triton X-155" (trade mark) (an octylphenol polyethoxylate surfactant). The spraying is carried out with a moving track sprayer with delivers 620 liter/ha, and the concentration of active material is calculated to give an application rate of 1 kg/ha. After spraying, the plants are returned to normal glasshouse conditions for 96 hours and are then transferred to the high humidity compartment for 24 hours to induce sporulation, prior to assessment. Assessment is visual and is based on the percentage of the leaf area covered by sporulation compared with that on control leaves.

Plasmopara viticola [5] = assay: Translaminar protectant test, vine downy mildew (Pvt); format: in vivo; conditions: secondary screening
Text: The fungicidal activity of certain of the compounds was investigated further, in secondary screening.

Alternaria Solani = assay: Direct protectant activity against tomato early blight (As); format: in vivo; set-up: As: activity against tomato early blight: scale not given here; conditions: foliar spray as under (a), 8 days; activity grade 1 or 2, not defined; also: dose 1000 g/ha
Protocol: (g) Activity Against Tomato Early Blight (Alternaria Solani; As). The test is a direct protectant one using a foliar spray. The upper surfaces of leaves of young tomato plants are sprayed with a solution of active material as described in (a) above. After 24 hours under normal glasshouse conditions, the upper surfaces of the leaves are inoculated by spraying with an aqueous suspension containing 10^4 spores/ml. The inoculated plants are kept for 72 hours in a high humidity compartment and are then removed to lower humidity (50-70% relative humidity). Assessment is made 8 days after inoculation.

Leptosphaeria nodorum = assay: Direct antisporulant activity against wheat leafspot (Ln); format: in vivo; set-up: scale not given here; conditions: foliar spray, 1 kg/ha; activity grade 1 or 2, not defined
Protocol: (e) Activity Against Wheat Leafspot (Leptosphaeria nodorum; Ln) The test is a direct antisporulant one, using a foliar spray. Leaves of wheat plants ([…]), at the single leaf stage, are inoculated by spraying with an aqueous suspension containing 8×10^5 spores/mi. The inoculated plants are kept for 24 hours in a high humidity compartment prior to treatment. […] After drying, the plants are kept for 5 days under normal glasshouse conditions, followed by assessment. Assessment is based on the percentage of leaf area covered by sporulation compared with that on leaves of control plants.

Botrytis cinerea = assay: Direct protectant activity against vine grey mould (Bcp); format: in vivo; conditions: foliar spray, 1 kg/ha; activity grade 1 or 2, not defined
Text: (b) Direct Protectant Activity Against Vine Grey Mould (Botrytis cinerea; Bcp) The test is a direct protectant one using a foliar spray and is effected as described under (a), with the difference that the leaves are inoculated by spraying with an aqueous solution containing 10^5 conidia/ml.

Pyricularia oryzae = format: in vivo; conditions: foliar spray, 1 kg/ha; activity grade 1 or 2, not defined

Structure (SMILES)	antifungal activity (fungi)	antibacterial activity (bacteria)	Other: Pl, activity against apple powdery mildew (Podosphaera leucotricha)	Eg: activity against barley powdery mildew [1]	Ph: activity against wheat eyespot [2]	Pvp: direct protectant activity against vine downy mildew (Plasmopara viticola [3])	further results
N#CN=[N+]([O-])c1ccccc1C(=O)O [2-(cyano-N,N,O-azoxy)benzoic acid]	no relevant activity against the tested fungi	low activity against bacteria					
C[S+](C)[O-].N#CN=[N+]([O-])c1ccc(C(=O)O)cc1 [4-carboxyphenylazoxycyanide-dimethylsulphoxide]	Antibacterial and antifungal properties	Antibacterial and antifungal properties					
COC(=O)N=Nc1cccc2c1OC(C)(C)C2 [Example 31]			1	1	1		Fs: activity against seedling wheat blight (Fusarium culmorum): 1
COC(=O)N=Nc1cc(C)cc2c1OC(C)C2 (stereo not shown) [Example 33]				1		1	Other: Pva, antisporulant activity against vine downy mildew (Plasmopara viticola [4]): 1
COC(=O)N=Nc1cc(Cl)c(C)c2c1OC(C)C2 (stereo not shown) [Example 35]					1	1	Other: Pva, antisporulant activity against vine downy mildew (Plasmopara viticola [4]): 1
COCC1Cc2c(Cl)c(C)cc(N=NC(=O)OC)c2O1 (stereo not shown) [Example 36]			2	2	2	1	
CCC1Cc2c(C)ccc(N=NC(=O)OC)c2O1 (stereo not shown) [Example 37]			1		1	1	activity against Pvt (Plasmopara viticola [5]): high activity; As: activity against tomato early blight (Alternaria Solani): 1
C=CCOC(=O)N=Nc1ccc(C)c2c1OC(C)CC2 (stereo not shown) [Example 40]			2				Ln: activity against wheat leafspot (Leptosphaeria nodorum): 1
COC(=O)N=[N+]([O-])c1cccc2c1OC(C)(C)C2 [Example 43]			1	2	2		activity against Ph ([2]; secondary screening): high activity; Bcp: direct protectant activity against vine grey mould (Botrytis cinerea): 1
COC(=O)N=[N+]([O-])c1ccc(C)c2c1OC(C)CC2 (stereo not shown) [Example 46]				2	2	2	As: activity against tomato early blight (Alternaria Solani): 2; Other: Po, activity against rice leaf blast (Pyricularia oryzae): 2; Ln: activity against wheat leafspot (Leptosphaeria nodorum): 2
COC(=O)c1ccc([N+]([O-])=NC#N)cc1 [calvatic acid methyl ester]	antibacterial and antifungal activity	antibacterial and antifungal activity					
N#CN=[N+]([O-])c1ccc(C(=O)O)cc1 [calvatic acid, 4 -(cyano-N,N,O-azoxy) benzoic acid]	antibacterial and antifungal activity	antibacterial and antifungal activity					
